Patent US8709451B2, “Stable nanoemulsions for ultrasound-mediated drug delivery and imaging” (University of Utah Research Foundation, priority 2010, dated 2014)

Assays:
[1] = tested on: A2780 ovarian cancer cells; assay: Confocal imaging of DOX uptake by substrate-attached cells without ultrasound; assay type: cell-based; conditions: no ultrasound, 20 μg/mL DOX
Description: A2780 cells were grown on cover glass in an 8 well cover glass chamber (LabTek chambered cover glass, NUNC, Rochester, N.Y.), and incubated with either, DOX dissolved in PBS, DOX-loaded 1.4% PEG-PCL micelle solution, or DOX-loaded 1% PFCE or PFP emulsions. Hoechst 33258 (Sigma Aldrich, St Louis, Mo.) stain was used to identify the nuclei of the A2780 cancer cells. Confocal fluorescent images of the cells were obtained using inverted confocal microscope (Olympus IX81, Olympus America Inc., Center Valley, Pa.); and the images were processed using ImageJ software. Emission filters of 570 nm for DOX and 480 nm for Hoechst were selected for imaging. In some experiments, DAPI was added to stain the cells before incubation with DOX and ultrasound exposure as discussed below.
A2780 drug sensitive cells, grown on chambered cover slip were incubated with different DOX formulations and confocal fluorescent images were obtained (FIGS. 14 and 15). Different image slices of the cell layer attached to the cover slip were recorded at an incremental step of 0.5 μm depth from the bottom to top of the cell layer (z-direction). The images recorded were stacked in z-direction and processed using ImageJ. The brightness and contrast ratios of magnified insets of the images were modified to reveal the intracellular distribution of fluorescence. […]
DOX fluorescence inside the cells was characterized by the R/G ratio where R is the intensity of red color and G is that of green color at the same region of interest (ROI) inside the cells. This ratio is used because DOX absorbs green light that ignites its red fluorescence. The R and G values and ratios were measured using ImageJ software.
The red/green (R/G) ratio of the fluorescence inside the cells and R/G ratio of the background fluorescence from the cover slip were measured. […] The cells incubated with either PFCE or PFP droplets have lower fluorescence (R/G ratios of 0.31 and 0.14 for PFCE and PFP respectively) than the cells incubated with DOX in micellar solution (R/G ratio of 0.63). […]

[2] = tested on: A2780 ovarian cancer cells; assay: Sonication of suspended cells with DOX formulations, confocal imaging; assay type: cell-based; conditions: 3-MHz CW ultrasound, DOX 10 μg/mL
Description: A2780 cells were lifted off the culture T-flasks with 1× Trypsin (0.25% trypsin, 0.02% EDTA, Sigma Aldrich, St Louis, Mo.). The cells were resuspended in media. This suspension was mixed 2:1 volume ratio with DOX-containing formulations with typical cell concentrations of 5.7×10^6 cells/mL. Two types of DOX solutions in PBS were used: hydrophilic hydrochloride salt DOX-HCl (20 μg/mL) or deprotonated DOX; the concentration in PBS was 20 μg/mL for either molecule. DOX formulations included deprotonated DOX incorporated in 1.4% PEG-PCL micellar solution or DOX incorporated in 1% PFCE or PFP PEG-PCL emulsion; DOX concentration was the same as in PBS solutions (20 μg/mL). […] Pressure was measured using ONDA needle hydrophone (Onda HNR-0500) (calibrated in October, 2009) placed in front of the probe with a distance of 0.5 cm from the probe. […] After ultrasound treatments, a droplet of the cell suspension was placed on a glass slide, and the fluorescence inside the cells was observed and quantified using confocal microscope as described above. […]

| Structure (SMILES) | DOX penetration into cell nuclei [1] | cellular uptake of DOX [1] | effect of ultrasound on DOX penetration into cell nuclei [2] |
| --- | --- | --- | --- |
| COc1cccc2c1C(=O)c1c(O)c3c(c(O)c1C2=O)C[C@@](O)(C(=O)CO)C[C@@H]3O[C@H]1C[C@H](N)[C@H](O)[C@H](C)O1 [deprotonated DOX, doxorubicin] | did not get into the nuclei | low cellular uptake | marginal |
| COc1cccc2c1C(=O)c1c(O)c3c(c(O)c1C2=O)C[C@@](O)(C(=O)CO)C[C@@H]3O[C@H]1C[C@H](N)[C@H](O)[C@H](C)O1.Cl [hydrophilic DOX, doxorubicin] | red fluorescence in the nuclei |  |  |
